Data set [1] can be described thus: Rat cassette dosing pharmacokinetics (IV and PO). Format: in vivo. The settings on record: male SD rats, plasma.
Data set [2] concerns the target hERG (Homo sapiens (Human), UniProt Q12809). Briefly: hERG inhibition, whole-cell patch clamp. Format: cell-based. The settings on record: HEK293 cells stably transfected with hERG, tail current at -50 mV. (In general: Block of hERG is tested as a sign of cardiac risk.)
Experimental: For hERG inhibition assays, the cells used were HEK293 cells stably transfected with hERG (cell line obtained from Cytocentrics Inc. 3463 Magic Drive San Antonio, Tex. 78229). Composition of External Solution: NaCl, 137 mM; KCl, 4 mM; MgCl2, 1.0 mM; CaCl2, 1.8 mM; HEPES 10 mM; Dextrose 11 mM; Adjusted to a pH of 7.4 with NaOH. Composition of Internal Solution: KCl, 130.0 mM; MgCl2, 1.0 mM; HEPES, 5.0 mM; EGTA, 5.0 mM; NaCl 7.0 mM. Adjusted to a pH of 7.2 using KOH. Test Concentrations: 0.1, 1, 10, 100 μM. Vehicle: DMSO. Experiments were performed at 34+/−1° C. Current was recorded using the whole-cell patch clamp technique on the Cytopatch automated platform. hERG current was elicited with the following voltage protocol: hERG current amplitude was measured as the peak current at −50 mV (tail current). […] Each cell served as its own control. Data are presented as the IC50 calculated by non-linear regression analysis.
The subject of data set [3] is CYP1A2, CYP2C9, CYP2C19, CYP3A4, CYP2D6. Briefly: Cyp inhibition in human liver microsomes (all isozymes). Format: in vitro ADME. The procedure: For Cyp inhibition, human liver microsomes from BD Gentest were incubated with Compound 028 or Compound 032 (10, 3.33, 1.11, 0.37, 0.12, 0.04, 0.01 μM) and substrate (CYP1A2: Phenacetin at 30 μM; CYP2C9: Diclofenac at 10 μM; CYP2C19: S-Mephenytoin at 35 μM; CYP3A4: Midazolam at 5 μM and Testosterone at 80 μM; CYP2D6: Bufuralol at 10 μM) for the following incubation times: CYP1A2, 2C9, 2D6: 10 minutes, 37° C.; CYP2C19: 45 minutes, 37° C.; CYP3A4: 5 minutes, 37° C. Substrate conversion was measured by liquid chromatography/mass spectrometry/mass spectrometry (LC/MS/MS). Inhibition was calculated by curve fitting in Graph Pad Prism.

In data set [4] the target is HDAC1 (Homo sapiens (Human), UniProt Q13547). Briefly: HDAC enzyme assay. Format: biochemical. The settings on record: 10 min preincubation, 16 μM substrate.

SMILES strings stand for the structures.

Chain of HDAC1 (Q13547 whole entry): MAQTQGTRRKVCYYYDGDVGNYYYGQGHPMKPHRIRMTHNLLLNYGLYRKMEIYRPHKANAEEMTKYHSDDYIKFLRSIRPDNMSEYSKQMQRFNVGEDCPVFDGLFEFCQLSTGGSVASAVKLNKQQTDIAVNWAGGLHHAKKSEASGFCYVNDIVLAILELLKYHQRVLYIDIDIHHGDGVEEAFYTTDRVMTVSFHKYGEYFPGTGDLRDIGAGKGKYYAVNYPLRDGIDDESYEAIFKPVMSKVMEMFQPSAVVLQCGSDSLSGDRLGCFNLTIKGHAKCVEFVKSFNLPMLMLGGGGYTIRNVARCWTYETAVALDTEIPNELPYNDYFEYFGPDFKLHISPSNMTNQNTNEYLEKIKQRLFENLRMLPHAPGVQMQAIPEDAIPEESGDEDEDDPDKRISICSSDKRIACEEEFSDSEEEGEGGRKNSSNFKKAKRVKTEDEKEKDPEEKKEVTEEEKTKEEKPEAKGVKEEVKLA
Chain of hERG (Q12809 whole entry): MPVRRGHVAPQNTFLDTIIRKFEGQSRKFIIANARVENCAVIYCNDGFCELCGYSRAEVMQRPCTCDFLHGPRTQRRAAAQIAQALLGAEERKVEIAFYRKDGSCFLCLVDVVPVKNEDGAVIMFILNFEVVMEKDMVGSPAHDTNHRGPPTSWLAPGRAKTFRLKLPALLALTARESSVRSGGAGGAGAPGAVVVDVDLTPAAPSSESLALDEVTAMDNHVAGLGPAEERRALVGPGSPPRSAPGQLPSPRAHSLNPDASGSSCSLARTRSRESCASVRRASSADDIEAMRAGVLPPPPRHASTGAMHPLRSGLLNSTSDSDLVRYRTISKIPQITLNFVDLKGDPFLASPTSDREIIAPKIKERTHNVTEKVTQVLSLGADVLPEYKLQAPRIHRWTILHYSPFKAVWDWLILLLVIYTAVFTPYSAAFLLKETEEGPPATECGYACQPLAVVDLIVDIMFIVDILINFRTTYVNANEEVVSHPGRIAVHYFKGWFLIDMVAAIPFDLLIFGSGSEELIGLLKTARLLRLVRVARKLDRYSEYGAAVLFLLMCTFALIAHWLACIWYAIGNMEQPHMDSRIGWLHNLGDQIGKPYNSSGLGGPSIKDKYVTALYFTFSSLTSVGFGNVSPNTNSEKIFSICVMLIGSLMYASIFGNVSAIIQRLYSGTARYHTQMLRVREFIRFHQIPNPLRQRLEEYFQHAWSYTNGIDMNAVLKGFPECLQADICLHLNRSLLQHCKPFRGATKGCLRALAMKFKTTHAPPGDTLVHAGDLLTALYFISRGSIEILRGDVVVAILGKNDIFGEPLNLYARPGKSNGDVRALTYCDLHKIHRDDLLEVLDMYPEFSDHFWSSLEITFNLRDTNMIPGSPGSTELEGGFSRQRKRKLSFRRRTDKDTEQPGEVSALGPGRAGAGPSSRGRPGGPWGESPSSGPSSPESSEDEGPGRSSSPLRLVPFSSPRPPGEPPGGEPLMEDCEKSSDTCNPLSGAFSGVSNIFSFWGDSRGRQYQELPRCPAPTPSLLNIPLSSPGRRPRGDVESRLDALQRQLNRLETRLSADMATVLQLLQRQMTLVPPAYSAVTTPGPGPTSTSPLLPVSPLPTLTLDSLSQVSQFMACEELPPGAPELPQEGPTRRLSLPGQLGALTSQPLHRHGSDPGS

The AUC is the area under the concentration-time curve, a measure of exposure. A higher AUC goes with high exposure. By Cmax is commonly meant the maximum level reached in the sampled fluid or tissue. As a reminder, the IC50 is the concentration that gives 50% inhibition. For `CN1CCN(c2ncc(C(=O)Nc3cc(-c4cccs4)ccc3N)s2)CC1` [Compound 030], in data set [1] (PO 5 mg/kg), the AUC was 15300 ng·h/mL. Besides, the Cmax in data set [1] (PO 5 mg/kg) came out at 944 ng/mL. For the same molecule, the half-life in data set [1] (PO 5 mg/kg, read-out: PO T1/2 (converted)) was 12.8 h. The bioavailability in data set [1] (5 mg/kg, oral AUC to IV AUC, dose adjusted) was 170%. For the same molecule, the IC50 in data set [2] is 70 µM; in data set [3], greater than 10 µM.

In data set [4], `Nc1ccc(-c2ccccc2)cc1NC(=O)c1ncc(N2CCNCC2)s1` [Compound 049] showed an IC50 of less than 0.01 µM.
